Measurements reported in US8309730B2, “Nonsteroidal compounds useful as modulators of glucocorticoid receptor AP-1 and/or NF-kappab acitivity and use thereof” (Bristol-Myers Squibb Company, priority 2007, dated 2012).

Experiments:
[1] = biological target: T1, human glucocorticoid receptor (Homo sapiens, UniProt P04150); assay: Glucocorticoid Receptor Binding Assay (I), fluorescence polarization competitor kit; conditions: purified human recombinant full-length GR, Fluormone GS Red, 2 h room temperature
T1 construct: purified human recombinant full-length glucocorticoid receptor (2 nM); purchased Invitrogen Part #2893
T1 sequence (P04150 1-777): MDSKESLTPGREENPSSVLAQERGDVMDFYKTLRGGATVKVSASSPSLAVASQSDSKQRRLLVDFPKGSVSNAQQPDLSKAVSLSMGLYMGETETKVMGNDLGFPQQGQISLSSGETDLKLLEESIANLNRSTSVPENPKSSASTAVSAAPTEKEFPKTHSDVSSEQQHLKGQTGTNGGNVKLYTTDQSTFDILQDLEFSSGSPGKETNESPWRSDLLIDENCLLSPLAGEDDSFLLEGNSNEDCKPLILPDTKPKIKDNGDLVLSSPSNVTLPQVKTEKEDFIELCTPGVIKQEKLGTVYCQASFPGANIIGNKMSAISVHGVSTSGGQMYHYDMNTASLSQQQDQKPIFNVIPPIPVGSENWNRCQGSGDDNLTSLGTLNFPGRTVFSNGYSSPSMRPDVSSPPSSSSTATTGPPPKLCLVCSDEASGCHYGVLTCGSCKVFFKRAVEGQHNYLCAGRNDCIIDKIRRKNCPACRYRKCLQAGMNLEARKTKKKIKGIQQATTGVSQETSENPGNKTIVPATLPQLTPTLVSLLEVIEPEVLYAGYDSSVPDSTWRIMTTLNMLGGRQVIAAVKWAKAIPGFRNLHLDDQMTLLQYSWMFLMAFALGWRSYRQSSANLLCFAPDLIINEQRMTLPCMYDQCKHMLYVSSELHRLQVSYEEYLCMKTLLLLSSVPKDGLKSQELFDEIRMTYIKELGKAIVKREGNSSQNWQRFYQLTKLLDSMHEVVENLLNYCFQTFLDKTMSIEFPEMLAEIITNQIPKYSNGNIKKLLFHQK
Description: Briefly, purified human recombinant full-length glucocorticoid receptor (2 nM) was mixed with fluorescently labeled glucocorticoid (1 nM Fluormone GS Red) in the presence or absence of test compound. After two hours incubation at room temperature in the dark, the fluorescence polarization (FP) of the sample was measured. […] Test compounds were analyzed in the concentration range from 8.5E-05 μM to 5 μM.

[2] = test system: AP-1 induced transcriptional activity; assay: Cellular Transrepressional Assay (AP-1 luciferase reporter in A549 cells); assay type: cell-based; conditions: Homo sapiens, A549 cells stably transfected with pAP-1-Luc, 10 ng/ml PMA, 7 hours; for Emax: maximum inhibition, read-out: AP-1 Max % inh (Cellular Transrepression Assay); for EC50: read-out: AP-1 EC50, nM (Cellular Transrepression Assay)
Description: To measure the ability of test molecules to inhibit AP-1 induced transcriptional activity we utilized an A549 cell which was stably transfected with a plasmid containing 7×AP-1 DNA binding sites (pAP-1-Luc plasmid, Stratagene Co. La Jolla, Calif.) followed by the gene for luciferase. Cells were activated with 10 ng/ml of phorbol myristic acid (PMA) plus or minus test molecules for 7 hours. After 7 hours a luciferase reagent was added to measure luciferase enzymatic activity in the cell. After a 10 minute incubation of luciferase reagent with cells, luminescence was measured in a TopCount luminescence counter. Repression of AP-1 activity was calculated as the percentage decrease in the signal induced by PMA alone. Test molecules were analyzed in the concentration range from 0.1 nM to 40 μM. EC50 values were determined by using standard curve fitting methods such as Excel fit (Microsoft Co.).

Ki [1] [nM] | EC50 [2] [nM] | Structure (SMILES) | Emax [2] [%]
207 |  | Cc1cccc(C)c1C(=O)[C@H]1CCCC2=Cc3c(-c4ccc(F)cc4)ncn3C[C@@]21C [Example 76] | 
344 |  | C[C@]12Cn3cnc(-c4ccc(F)cc4)c3C=C1CCC[C@@H]2C(=O)C1CCOCC1 [Example 94] | 
19.7 |  | CC12Cn3cnc(-c4ccc(F)cc4)c3C=C1CCCC2(O)CCc1ccccc1 (racemic) [Example 102] | 
 | 31.5 | CC(C)(C)C[C@@](C)(O)[C@H]1CCCC2=Cc3c(-c4ccc(F)cc4)ncn3C[C@@]21C [Example 63] | 47.5
 | 19.2 | C[C@]12Cn3cnc(-c4ccc(F)cc4)c3C=C1CCC[C@@H]2[C@](C)(O)c1cccc(C#N)c1 [Example 83] | 35.6
 | 20.8 | CSc1cccc([C@@](C)(O)[C@H]2CCCC3=Cc4c(-c5ccc(F)cc5)ncn4C[C@@]32C)c1 [Example 89] | 45.3
 | 9.75 | Cc1cccc([C@@](C)(O)[C@H]2CCCC3=Cc4c(-c5ccc(F)cc5)ncn4C[C@@]32C)c1 [Example 65] | 46.7
 | 24.7 | COC(=O)c1ccc([C@@](C)(O)[C@H]2CCCC3=Cc4c(-c5ccc(F)cc5)ncn4C[C@@]32C)s1 [Example 92] | 47.4
 | 1.99 | C[C@]12Cn3cnc(-c4ccc(F)cc4)c3C=C1CCC[C@@H]2[C@](C)(O)C1CCCCC1 [Example 67] | 44.3
 | 56.5 | C[C@]12Cn3cnc(-c4ccc(F)cc4)c3C=C1CCC[C@@H]2[C@](C)(O)C1CCOCC1 [Example 96] | 42
 | 573 | CNC(=O)c1ccc([C@@](C)(O)[C@H]2CCCC3=Cc4c(-c5ccc(F)cc5)ncn4C[C@@]32C)s1 [Example 100] | 30.7
 | 5.48 | C[C@]12Cn3cnc(-c4ccc(F)cc4)c3C=C1CCC[C@@H]2[C@](C)(O)c1ccc(Cl)s1 [Example 62] | 61.2
 | 4.6 | Cc1ccccc1[C@@](C)(O)[C@H]1CCCC2=Cc3c(-c4ccc(F)cc4)ncn3C[C@@]21C [Example 66] | 42.1
 | 95 | COc1cccc([C@@](C)(O)[C@H]2CCCC3=Cc4c(-c5ccc(F)cc5)ncn4C[C@@]32C)c1 [Example 97] | 39.6
 | 33.9 | CCCC[C@@](C)(O)[C@H]1CCCC2=Cc3c(-c4ccc(F)cc4)ncn3C[C@@]21C [Example 68] | 40.8
 | 41.6 | CCc1ccccc1[C@@](C)(O)[C@H]1CCCC2=Cc3c(-c4ccc(F)cc4)ncn3C[C@@]21C [Example 75] | 47.1
 | 472 | C[C@]12Cn3cnc(-c4ccc(F)cc4)c3C=C1CCC[C@@H]2[C@](C)(O)c1ccc(C(=O)O)s1 [Example 99] | 43.9
 | 14.3 | Cc1ccc([C@@](C)(O)[C@H]2CCCC3=Cc4c(-c5ccc(F)cc5)ncn4C[C@@]32C)cc1F [Example 74] | 34.5
 | 4.26 | Cc1ccc([C@@](C)(O)[C@H]2CCCC3=Cc4c(-c5ccc(F)cc5)ncn4C[C@@]32C)cc1 [Example 64] | 41.9
 | 877 | CC1(C)COC2(CCCC3=Cc4c(-c5ccc(F)cc5)ncn4CC32C)OC1 (stereo not drawn) [Example 104, 1′-(4-Fluorophenyl)-5,5,5a′-trimethyl-5a′,7′,8′,9′-tetrahydro-5′H-spiro[[1,3]dioxane-2,6′-imidazo[1,5-b]isoquinoline]] | 32.4
 | 3.02 | C[C@]12Cn3cnc(-c4ccc(F)cc4)c3C=C1CCC[C@@H]2[C@](C)(O)c1ccccc1 [Example 71] | 32.5

The next lines start with the compound.

Structure (SMILES) | Ki [1] [nM] | EC50 [2] [nM] | Emax [2] [%]
CC[C@@](O)(c1ccccc1)[C@H]1CCCC2=Cc3c(-c4ccccc4)ncn3C[C@@]21C (racemic) [Example 36] | 8.71 |  | 
C[C@]12Cn3cnc(-c4ccc(F)cc4)c3C=C1CCC[C@@H]2[C@](C)(O)c1ccc(F)cc1 [Example 48] |  | 11.9 | 35.6
C[C@]12Cn3cnc(-c4ccc(F)cc4)c3C=C1CCC[C@@H]2[C@](C)(O)c1csc2ccccc12 (single isomer, unassigned) [Example 45] | 73.2 |  | 
CC(C)(O)c1cccc([C@@](C)(O)[C@H]2CCCC3=Cc4c(-c5ccc(F)cc5)ncn4C[C@@]32C)c1 [Example 9, 2-(3-((S)-1-((5aR,6S)-1-(4-Fluorophenyl)-5a-methyl-5,5a,6,7,8,9-hexahydroimidazo[1,5-b]isoquinolin-6-yl)-1-hydroxyethyl)phenyl)propan-2-ol] |  | 144 | 34.3
CN(C)C(=O)c1ccc([C@@](C)(O)[C@H]2CCCC3=Cc4c(-c5ccc(F)cc5)ncn4C[C@@]32C)s1 [Example 3, 5-((S)-1-((5aR,6S)-1-(4-Fluorophenyl)-5a-methyl-5,5a,6,7,8,9-hexahydroimidazo[1,5-b]isoquinolin-6-yl)-1-hydroxyethyl)-N,N-dimethylthiophene-2-carboxamide] |  | 267 | 29.5
C[C@]12Cn3cnc(-c4ccc(F)cc4)c3C=C1CCC[C@@H]2[C@](C)(O)c1ccc(Cl)cc1 [Example 53] |  | 63.2 | 44.6
C[C@]12Cn3cnc(-c4ccc(F)cc4)c3C=C1CCC[C@@H]2[C@](C)(O)C(F)(F)F [Example 10, (S)-1,1,1-Trifluoro-2-((5aR,6S)-1-(4-fluorophenyl)-5a-methyl-5,5a,6,7,8,9-hexahydroimidazo[1,5-b]isoquinolin-6-yl)propan-2-ol] |  | 30.9 | 31.3
C[C@]12Cn3cnc(-c4ccc(F)cc4)c3C=C1CCC[C@@H]2[C@](C)(O)c1cccs1 [Example 1, (S)-1-((5aR,6S)-1-(4-Fluorophenyl)-5a-methyl-5,5a,6,7,8,9-hexahydroimidazo[1,5-b]isoquinolin-6-yl)-1-(thiophen-2-yl)ethanol] |  | 21.4 | 38.1
Cc1ccc([C@@](C)(O)[C@H]2CCCC3=Cc4c(-c5ccc(F)cc5)ncn4C[C@@]32C)s1 [Example 60] |  | 31.3 | 48.3
C[C@]12Cn3cnc(-c4ccc(F)cc4)c3C=C1CCC[C@@H]2CCNc1nncs1 [Example 5, N-(2-((5aR,6R)-1-(4-Fluorophenyl)-5a-methyl-5,5a,6,7,8,9-hexahydroimidazo[1,5-b]isoquinolin-6-yl)ethyl)-1,3,4-thiadiazol-2-amine] |  | 98 | 22.6
C[C@]12Cn3cnc(-c4ccc(F)cc4)c3C=C1CCC[C@@H]2[C@](C)(O)c1ccc(F)c(Cl)c1 [Example 56] |  | 19.3 | 39.6
C[C@]12Cn3cnc(-c4ccccc4)c3C=C1CCC[C@@H]2[C@](C)(O)c1csc2ccccc12 (single isomer, unassigned) [Example 31] |  | 181 | 41.2
C[S+]([O-])c1cccc([C@@](C)(O)[C@H]2CCCC3=Cc4c(-c5ccc(F)cc5)ncn4C[C@@]32C)c1 (stereo partly drawn) [Example 8b, (1S)-1-((5aR,6S)-1-(4-fluorophenyl)-5a-methyl-5,5a,6,7,8,9-hexahydroimidazo[1,5-b]isoquinolin-6-yl)-1-(3-(methylsulfinyl)phenyl)ethanol] |  | 236 | 40.7
C[C@]12Cn3cnc(-c4ccc(F)cc4)c3C=C1CCC[C@@H]2[C@](C)(O)C1CC1 [Example 58] |  | 36.8 | 35.8
C=CC[C@@](C)(O)[C@H]1CCCC2=Cc3c(-c4ccc(F)cc4)ncn3C[C@@]21C [Example 57] |  | 56.6 | 55.9
C[C@]12Cn3cnc(-c4ccccc4)c3C=C1CCC[C@@H]2[C@](C)(O)c1csc2ccccc12 (racemic) [Example 15] |  | 145 | 42.7
Cc1ccsc1[C@@](C)(O)[C@H]1CCCC2=Cc3c(-c4ccc(F)cc4)ncn3C[C@@]21C [Example 61] |  | 11.6 | 58.8
C[C@]12Cn3cnc(-c4ccc(F)cc4)c3C=C1CCC[C@@H]2[C@](C)(O)c1ccsc1 [Example 54] |  | 4.67 | 42.7
C[C@]12Cn3cnc(-c4ccc(F)cc4)c3C=C1CCC[C@@H]2[C@](C)(O)Cc1ccc(F)cc1 [Example 55] |  | 84.2 | 53.7
